Legend:
[1] = molecular target: isolated recombinant JAK1 kinase domain (Homo sapiens (Human), UniProt P23458); assay: JAK1 enzyme assay (Caliper LabChip, Ki); format: biochemical; settings: isolated recombinant JAK1 kinase domain, 1.5 nM enzyme, ATP 25 μM
[2] = molecular target: isolated recombinant JAK2 kinase domain (Homo sapiens (Human), UniProt O60674); assay: JAK2 enzyme assay (Caliper LabChip, Ki); format: biochemical; settings: isolated recombinant JAK2 kinase domain, 0.2 nM enzyme, ATP 25 μM
Sequence of isolated recombinant JAK2 kinase domain (O60674 849-1124): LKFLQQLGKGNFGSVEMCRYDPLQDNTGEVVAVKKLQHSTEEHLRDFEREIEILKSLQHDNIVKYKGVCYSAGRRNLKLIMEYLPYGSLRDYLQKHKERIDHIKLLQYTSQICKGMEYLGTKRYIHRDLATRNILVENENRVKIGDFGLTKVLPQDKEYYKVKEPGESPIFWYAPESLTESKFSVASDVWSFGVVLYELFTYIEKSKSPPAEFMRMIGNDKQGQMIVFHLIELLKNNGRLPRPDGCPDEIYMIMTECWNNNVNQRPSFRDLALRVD

Sequence of isolated recombinant JAK1 kinase domain (P23458 875-1153): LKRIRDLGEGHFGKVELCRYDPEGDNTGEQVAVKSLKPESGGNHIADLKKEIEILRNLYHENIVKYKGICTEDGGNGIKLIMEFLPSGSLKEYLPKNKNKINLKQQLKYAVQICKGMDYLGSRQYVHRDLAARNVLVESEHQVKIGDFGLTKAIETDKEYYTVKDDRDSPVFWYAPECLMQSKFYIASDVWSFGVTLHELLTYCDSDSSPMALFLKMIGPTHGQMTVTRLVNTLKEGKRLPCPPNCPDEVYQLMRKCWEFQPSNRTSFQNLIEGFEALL

| SMILES | Ki [1] | Ki [2] |
| --- | --- | --- |
| CN1CCN(C(=O)Cn2cc(Nc3nc4c(N5CC6CCC(C5)N6C(=O)CC5CC(F)(F)C5)cccn4n3)cn2)CC1 [Example 8, 2-(3,3-difluorocyclobutyl)-1-[3-[2-[[1-[2-(4-methylpiperazin-1-yl)-2-oxo-ethyl]pyrazol-4-yl]amino]-[1,2,4]triazolo[1,5-a]pyridin-8-yl]-3,8-diazabicyclo[3.2.1]octan-8-yl]ethanone] | 0.6 nM | 0.7 nM |
| CN1CCN(C(=O)Cn2cc(Nc3nc4c(N5CC6CCC(C5)N6C(=O)CC5CSCCS5)cccn4n3)cn2)CC1 (centres unmarked) [Example 9, 2-(1,4-dithian-2-yl)-1-[3-[2-[[1-[2-(4-methylpiperazin-1-yl)-2-oxo-ethyl]pyrazol-4-yl]amino]-[1,2,4]triazolo[1,5-a]pyridin-8-yl]-3,8-diazabicyclo[3.2.1]octan-8-yl]ethanone] | 0.6 nM | 0.9 nM |
| O=C(Cn1cc(Nc2nc3c(N4CC5CCC(C4)N5C(=O)CCC(F)(F)F)cccn3n2)cn1)N1CCN(C2CCOCC2)CC1 [Example 10, 4,4,4-trifluoro-1-[3-[2-[[1-[2-oxo-2-(4-tetrahydropyran-4-ylpiperazin-1-yl)ethyl]pyrazol-4-yl]amino]-[1,2,4]triazolo[1,5-a]pyridin-8-yl]-3,8-diazabicyclo[3.2.1]octan-8-yl]butan-1-one] | 0.7 nM | 1.2 nM |
| CN(C1CCN(C(=O)Cn2cc(Nc3nc4c(N5CC6CCC(C5)N6C(=O)CCC(F)(F)F)cccn4n3)cn2)CC1)C1COC1 [Example 11, 4,4,4-trifluoro-1-[3-[2-[[1-[2-[4-[methyl(oxetan-3-yl)amino]-1-piperidyl]-2-oxo-ethyl]pyrazol-4-yl]amino]-[1,2,4]triazolo[1,5-a]pyridin-8-yl]-3,8-diazabicyclo[3.2.1]octan-8-yl]butan-1-one] | 0.7 nM | 1.4 nM |
| CN1CCN(C(=O)Cn2cc(Nc3nc4c(N5CC6CCC(C5)N6C(=O)CC(F)(F)F)cccn4n3)cn2)CC1 [Example 12, 3,3,3-trifluoro-1-[3-[2-[[1-[2-(4-methylpiperazin-1-yl)-2-oxo-ethyl]pyrazol-4-yl]amino]-[1,2,4]triazolo[1,5-a]pyridin-8-yl]-3,8-diazabicyclo[3.2.1]octan-8-yl]propan-1-one] | 0.7 nM | 1.7 nM |
| CN1CCN(C(=O)Cn2cc(Nc3nc4c(N5CC6CCC(C5)N6C(=O)C5CC5C(F)(F)F)cccn4n3)cn2)CC1 (centres unmarked) [Example 14, 1-(4-methylpiperazin-1-yl)-2-[4-[[8-[8-[2-(trifluoromethyl)cyclopropanecarbonyl]-3,8-diazabicyclo[3.2.1]octan-3-yl]-[1,2,4]triazolo[1,5-a]pyridin-2-yl]amino]pyrazol-1-yl]ethanone] | 1 nM | 1.1 nM |
| CN1CCN(C(=O)Cn2cc(Nc3nc4c(N5CC6CCC(C5)N6C(=O)[C@H]5C[C@@H](C(F)(F)F)C5)cccn4n3)cn2)CC1 [Example 15, formic acid; 1-(4-methylpiperazin-1-yl)-2-[4-[[8-[8-[3-(trifluoromethyl)cyclobutanecarbonyl]-3,8-diazabicyclo[3.2.1]octan-3-yl]-[1,2,4]triazolo[1,5-a]pyridin-2-yl]amino]pyrazol-1-yl]ethanone] | 1.1 nM | 3.7 nM |
| CN1CCN(C(=O)Cn2cc(Nc3nc4c(N5CC6CCC(C5)N6C(=O)CC5CC5(F)F)cccn4n3)cn2)CC1 (centres unmarked) [Example 16, 2-(2,2-difluorocyclopropyl)-1-[3-[2-[[1-[2-(4-methylpiperazin-1-yl)-2-oxo-ethyl]pyrazol-4-yl]amino]-[1,2,4]triazolo[1,5-a]pyridin-8-yl]-3,8-diazabicyclo[3.2.1]octan-8-yl]ethanone] | 1 nM | 1.8 nM |
| CN1CCN(C(=O)Cn2cc(Nc3nc4c(N5CC6CC(C5)N6Cc5ccc(Cl)cc5)cccn4n3)cn2)CC1 [Example 34, 2-[4-[(8-[6-[(4-chlorophenyl)methyl]-3,6-diazabicyclo[3.1.1]heptan-3-yl]-[1,2,4]triazolo[1,5-a]pyridin-2-yl)amino]-1H-pyrazol-1-yl]-1-(4-methylpiperazin-1-yl)ethan-1-one] | 68.8 nM | 271 nM |
| CN1CCN(C(=O)Cn2cc(Nc3nc4c(N5CC6CCC(C5)N6C(=O)C5CC5(F)F)cccn4n3)cn2)CC1 (centres unmarked) [Example 37, 2-[4-[[8-[8-(2,2-difluorocyclopropanecarbonyl)-3,8-diazabicyclo[3.2.1]octan-3-yl]-[1,2,4]triazolo[1,5-a]pyridin-2-yl]amino]pyrazol-1-yl]-1-(4-methylpiperazin-1-yl)ethanone] | 1.3 nM | 1.8 nM |
| CN1CCN(C(=O)Cn2cc(Nc3nc4c(N5CC6CCC(C5)N6C(=O)C5(C(F)(F)F)CC5)cccn4n3)cn2)CC1 [Example 38, 1-(4-methylpiperazin-1-yl)-2-[4-[[8-[8-[1-(trifluoromethyl)cyclopropanecarbonyl]-3,8-diazabicyclo[3.2.1]octan-3-yl]-[1,2,4]triazolo[1,5-a]pyridin-2-yl]amino]pyrazol-1-yl]ethanone] | 1.3 nM | 1.8 nM |
| O=C(Cn1cc(Nc2nc3c(N4CC5CCC(C4)N5C(=O)N4CC(C(F)(F)F)C4)cccn3n2)cn1)N1CCN(C2CCOCC2)CC1 [Example 39, 1-(4-tetrahydropyran-4-ylpiperazin-1-yl)-2-[4-[[8-[8-[3-(trifluoromethyl)azetidine-1-carbonyl]-3,8-diazabicyclo[3.2.1]octan-3-yl]-[1,2,4]triazolo[1,5-a]pyridin-2-yl]amino]pyrazol-1-yl]ethanone] | 0.7 nM | 0.4 nM |
| CN1CCN(C(=O)Cn2cc(Nc3nc4c(N5CC6CCCC(C5)N6C(=O)[C@H]5C[C@H](C(F)(F)F)C5)cccn4n3)cn2)CC1 [Example 40, 1-(4-methylpiperazin-1-yl)-2-[4-[[8-[9-[3-(trifluoromethyl)cyclobutanecarbonyl]-3,9-diazabicyclo[3.3.1]nonan-3-yl]-[1,2,4]triazolo[1,5-a]pyridin-2-yl]amino]pyrazol-1-yl]ethanone] | 0.6 nM | 0.6 nM |
| O=C(Cn1cc(Nc2nc3c(N4CC5CCC(C4)N5C(=O)CCC(F)(F)F)cccn3n2)cn1)N1CCC(CN2CCOCC2)CC1 [Example 41, 4,4,4-trifluoro-1-[3-[2-[[1-[2[4-(morpholinomethyl)-1-piperidyl]-2-oxo-ethyl]pyrazol-4-yl]amino]-[1,2,4]triazolo[1,5-a]pyridin-8-yl]-3,8-diazabicyclo[3.2.1]octan-8-yl]butan-1-one] | 2.6 nM | 4.6 nM |
| CN1CCN(C(=O)Cn2cc(Nc3nc4c(N5CC6CCC(C5)N6C(=O)Cc5ccncc5)cccn4n3)cn2)CC1 [Example 42, 1-[3-[2-[[1-[2-(4-methylpiperazin-1-yl)-2-oxo-ethyl]pyrazol-4-yl]amino]-[1,2,4]triazolo[1,5-a]pyridin-8-yl]-3,8-diazabicyclo[3.2.1]octan-pyridyl)ethanone] | 1.6 nM | 5.7 nM |
| CN1CCN(C(=O)Cn2cc(Nc3nc4c(N5CC6CCC(C5)C6C(=O)N5CC(C(F)(F)F)C5)cccn4n3)cn2)CC1 (centres unmarked) [Example 43, 1-(4-methylpiperazin-1-yl)-2-(4-[[8-(8-[[3-(trifluoromethyl)azetidin-1-yl]carbonyl]-3-azabicyclo[3.2.1]octan-3-yl)-[1,2,4]triazolo[1,5-a]pyridin-2-yl]amino]-1H-pyrazol-1-yl)ethan-1-one] | 1.1 nM | 1.9 nM |
| O=C(Cn1cc(Nc2nc3c(N4CC5CCC(C4)N5C(=O)N4CC(C(F)(F)F)C4)cccn3n2)cn1)N1CCC(N2CCOCC2)CC1 [Example 44, 1-(4-morpholino-1-piperidyl)-2-[4-[[8-[8-[3-(trifluoromethyl)azetidine-1-carbonyl]-3,8-diazabicyclo[3.2.1]octan-3-yl]-[1,2,4]triazolo[1,5-a]pyridin-2-yl]amino]pyrazol-1-yl]ethanone] | 0.9 nM | 0.6 nM |
| CN1CCN(C(=O)Cn2cc(Nc3nc4c(N5CC6CCC(C5)N6C(=O)COCC(F)(F)F)cccn4n3)cn2)CC1 [Example 45, 1-(4-methylpiperazin-1-yl)-2-[4-[[8-[8-[2-(2,2,2-trifluoroethoxy)acetyl]-3,8-diazabicyclo[3.2.1]octan-3-yl]-[1,2,4]triazolo[1,5-a]pyridin-2-yl]amino]pyrazol-1-yl]ethanone] | 1 nM | 3.5 nM |
| CN1CCN(C(=O)Cn2cc(Nc3nc4c(N5CC6CCC(C5)N6C(=O)C5CC(F)(F)C5)cccn4n3)cn2)CC1 [Example 46, 2-[4-[[8-[8-(3,3-difluorocyclobutanecarbonyl)-3-yl]-3,8-diazabicyclo[3.2.1]octan-[1,2,4]triazolo[1,5-a]pyridin-2-yl]amino]pyrazol-1-yl]-1-(4-methylpiperazin-1-yl)ethanone] | 1.4 nM | 1.7 nM |
| CC(CC(F)(F)F)C(=O)N1C2CCC1CN(c1cccn3nc(Nc4cnn(CC(=O)N5CCN(C)CC5)c4)nc13)C2 (centres unmarked) [Example 47, 4,4,4-trifluoro-2-methyl-1-[3-[2-[[1-[2-(4-methylpiperazin-1-yl)-2-oxo-ethyl]pyrazol-4-yl]amino]-[1,2,4]triazolo[1,5-a]pyridin-8-yl]-3,8-diazabicyclo[3.2.1]octan-8-yl]butan-1-one] | 1.8 nM | 2 nM |
| CN1CCN(C(=O)Cn2cc(Nc3nc4c(N5C6CC5CN(C(=O)CCC(F)(F)F)C6)cccn4n3)cn2)CC1 [Example 48, 4,4,4-trifluoro-1-[6-[2-[[1-[2-(4-methylpiperazin-1-yl)-2-oxo-ethyl]pyrazol-4-yl]amino]-[1,2,4]triazolo[1,5-a]pyridin-8-yl]-3,6-diazabicyclo[3.1.1]heptan-3-yl]butan-1-one] | > 560 nM | > 320 nM |
| CN1CCN(C(=O)Cn2cc(Nc3nc4c(N5CC6CCC(C5)N6C(=O)C5C6CC(F)(F)CC65)cccn4n3)cn2)CC1 (centres unmarked) [Example 49, 2-[4-[[8-[8-(3,3-difluorobicyclo[3.1.0]hexane-6-carbonyl)-3,8-diazabicyclo[3.2.1]octan-3-yl]-[1,2,4]triazolo[1,5-a]pyridin-2-yl]amino]pyrazol-1-yl]-1-(4-methylpiperazin-1-yl)ethanone] | 1.5 nM | 4.1 nM |

Reference: patent publication US10189836B2, “Therapeutic compounds, compositions and methods of use thereof” (Genentech, Inc., priority 2015, dated 2019)
